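Step 1: Grow cells in 96-well plates. Step 2: Expose to compound for 48 hours at 5 concentrations. Step 3: Interpolate endpoints linearly; if unreached, use highest concentration. GI50 = concentration required for 50% inhibition of growth.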 Calls of active or inactive are those of the source. No stated cut-off is given here; in the data, active = GI50 up to about 1.1 µM and inactive = higher.
Experiments:
Assay in all cases: growth of human tumour cells (NCI), 48 h
[1] = tested on: SF-268
[2] = tested on: CCRF-CEM
[3] = tested on: COLO 205
[4] = tested on: MDA-MB-231
[5] = tested on: OVCAR-4
[6] = tested on: CAKI-1
[7] = tested on: HCT-15
[8] = tested on: SK-MEL-5
[9] = tested on: KM12
[10] = tested on: NCI/ADR-RES
[11] = tested on: SNB-19
[12] = tested on: Hs-578T
[13] = tested on: HL-60
[14] = tested on: NCI-H226
[15] = tested on: HCT-116
[16] = tested on: UO-31
[17] = tested on: T47D
[18] = tested on: 786-0
[19] = tested on: K562
[20] = tested on: U-251

Row | SMILES | GI50 [1] | GI50 [2] | GI50 [3] | GI50 [4] | GI50 [5] | GI50 [6] | GI50 [7] | GI50 [8] | GI50 [9] | GI50 [10] | GI50 [11] | GI50 [12] | GI50 [13] | GI50 [14] | GI50 [15] | GI50 [16] | GI50 [17] | GI50 [18] | GI50 [19] | GI50 [20]
1 | Cc1ccc2c(=O)c(-c3nnsn3)c[nH]c2n1 | > 100 µM (inactive) | > 100 µM (inactive) | > 100 µM (inactive) | > 100 µM (inactive) | > 100 µM (inactive) | > 100 µM (inactive) | > 100 µM | > 100 µM (inactive) | > 100 µM (inactive) | > 100 µM (inactive) | > 100 µM (inactive) | > 100 µM (inactive) | > 100 µM (inactive) | > 100 µM (inactive) | > 100 µM (inactive) | > 100 µM (inactive) | > 100 µM (inactive) | > 100 µM (inactive) | > 100 µM (inactive) | > 100 µM (inactive)
2 | CN(C)CCn1c(=O)c2ccc(NCCCN(C)CCCNc3ccc4c(=O)n(CCN(C)C)c(=O)n5c6ccc([N+](=O)[O-])cc6c(=O)c3c45)c3c(=O)c4cc([N+](=O)[O-])ccc4n(c1=O)c23 | 0.0163 µM (active) | < 0.01 µM (active) | < 0.01 µM (active) | < 0.021 µM (active) | < 0.01 µM (active) | < 0.033 µM (active) | < 0.015 µM | < 0.0115 µM (active) | < 0.01 µM (active) | 0.0802 µM (active) | < 0.01 µM (active) | 0.0178 µM (active) | < 0.027 µM (active) | < 0.01 µM (active) | < 0.01 µM (active) | 0.0129 µM (active) | 0.0968 µM (active) | < 0.01 µM (active) | < 0.01 µM (active) | < 0.01 µM (active)
